In patent publication US20240190880A1 (THE REGENTS OF THE UNIVERSITY OF MICHIGAN, priority 2021, published 2024):

These compounds were tested against T1, ER (Homo sapiens, UniProt P03372) (assay: ER degradation activity, in-cell western blot analysis in T47D cells). Settings: 16 hours, Table A does not say which cell line (T47D or MCF7), read-out: Potency (DC50).
T1 construct: host or cells: T47D and MCF7 human breast cancer cells
T1 sequence (P03372 1-595): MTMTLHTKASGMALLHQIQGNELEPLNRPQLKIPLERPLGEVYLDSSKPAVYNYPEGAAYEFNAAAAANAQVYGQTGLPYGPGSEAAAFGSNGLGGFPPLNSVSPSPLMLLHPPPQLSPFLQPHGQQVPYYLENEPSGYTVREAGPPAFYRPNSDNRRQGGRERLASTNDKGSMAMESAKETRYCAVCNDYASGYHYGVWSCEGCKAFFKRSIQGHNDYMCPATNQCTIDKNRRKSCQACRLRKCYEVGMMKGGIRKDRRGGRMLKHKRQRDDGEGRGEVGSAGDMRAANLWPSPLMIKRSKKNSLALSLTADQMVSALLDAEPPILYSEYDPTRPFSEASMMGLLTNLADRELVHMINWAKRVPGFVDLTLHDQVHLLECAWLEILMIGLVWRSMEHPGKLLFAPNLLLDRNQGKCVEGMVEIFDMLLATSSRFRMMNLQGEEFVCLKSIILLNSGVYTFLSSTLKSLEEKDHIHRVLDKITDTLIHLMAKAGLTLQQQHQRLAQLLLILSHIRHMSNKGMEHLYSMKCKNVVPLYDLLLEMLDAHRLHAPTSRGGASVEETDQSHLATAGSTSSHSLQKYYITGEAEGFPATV
Assay type: cell-based
Procedure, shortened: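 T47D cells grown in DMEM with 10% FBS were treated with compounds for 16 hours at 0.5% DMSO final. ER was detected by in-cell western using 680/800 near-infrared secondary antibodies. Residual ER is given as percent of untreated and DMSO-treated wells set to 100%.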

Row | SMILES | DC50 [nM]
1 | C[C@@H]1Cc2c([nH]c3ccccc23)[C@@H](c2c(F)cc(N3CCC(CN4CC(N5Cc6cc7c(cc6C5)C(=O)N(C5CCC(=O)NC5=O)C7)C4)CC3)cc2F)N1CC(F)F (stereo partly drawn) [E 52, 3-(6-(1-((1-(4-((1R,3R)-2-(2,2-difluoroethyl)-3-methyl-2,3,4,9-tetrahydro-1H-pyrido[3,4-b]indol-1-yl)-3,5-difluorophenyl)piperidin-4-yl)methyl)azetidin-3-yl)-1-oxo-3,5,6,7-tetrahydropyrrolo[3,4-f]isoindol-2(1H)-yl)piperidine-2,6-dione] | < 10
2 | C[C@@H]1Cc2c([nH]c3ccccc23)[C@@H](c2c(F)cc(N3CCC(CN4CCC(N5Cc6cc7c(cc6C5)C(=O)N(C5CCC(=O)NC5=O)C7)CC4)CC3)cc2F)N1CC(F)F (stereo partly drawn) [E 53, 3-(6-(1-((1-(4-((1R,3R)-2-(2,2-difluoroethyl)-3-methyl-2,3,4,9-tetrahydro-1H-pyrido[3,4-b]indol-1-yl)-3,5-difluorophenyl)piperidin-4-yl)methyl)piperidin-4-yl)-1-oxo-3,5,6,7-tetrahydropyrrolo[3,4-f]isoindol-2(1H)-yl)piperidine-2,6-dione] | 10 to 100
3 | C[C@@H]1Cc2c([nH]c3ccccc23)[C@@H](c2c(F)cc(N3CCN(CCN4Cc5cc6c(cc5C4)C(=O)N(C4CCC(=O)NC4=O)C6)CC3)cc2F)N1CC(F)F (stereo partly drawn) [E 54, 3-(6-(2-(4-(4-((1R,3R)-2-(2,2-difluoroethyl)-3-methyl-2,3,4,9-tetrahydro-1H-pyrido[3,4-b]indol-1-yl)-3,5-difluorophenyl)piperazin-1-yl)ethyl)-1-oxo-3,5,6,7-tetrahydropyrrolo[3,4-f]isoindol-2(1H)-yl)piperidine-2,6-dione] | 10 to 100
4 | C[C@@H]1Cc2c([nH]c3ccccc23)[C@@H](c2c(F)cc(N3CCC(N4CC(CC(=O)N5Cc6cc7c(cc6C5)C(=O)N(C5CCC(=O)NC5=O)C7=O)C4)CC3)cc2F)N1CC(F)F (stereo partly drawn) [E 55, 6-(2-(1-(1-(4-((1R,3R)-2-(2,2-difluoroethyl)-3-methyl-2,3,4,9-tetrahydro-1H-pyrido[3,4-b]indol-1-yl)-3,5-difluorophenyl)piperidin-4-yl)azetidin-3-yl)acetyl)-2-(2,6-dioxopiperidin-3-yl)-6,7-dihydropyrrolo[3,4-f]isoindole-1,3(2H,5H)-dione] | > 100
5 | C[C@@H]1Cc2c([nH]c3ccccc23)[C@@H](c2c(F)cc(N3CCC(N4CC(CC(=O)N5Cc6cc7c(cc6C5)C(=O)N(C5CCC(=O)NC5=O)C7)C4)CC3)cc2F)N1CC(F)F (stereo partly drawn) [E 56, 3-(6-(2-(1-(1-(4-((1R,3R)-2-(2,2-difluoroethyl)-3-methyl-2,3,4,9-tetrahydro-1H-pyrido[3,4-b]indol-1-yl)-3,5-difluorophenyl)piperidin-4-yl)azetidin-3-yl)acetyl)-1-oxo-3,5,6,7-tetrahydropyrrolo[3,4-f]isoindol-2(1H)-yl)piperidine-2,6-dione] | 10 to 100
6 | C[C@@H]1Cc2c([nH]c3ccccc23)[C@@H](c2c(F)cc(N3CCC(CN4CCC(C(=O)N5Cc6cc7c(cc6C5)C(=O)N(C5CCC(=O)NC5=O)C7=O)CC4)C3)cc2F)N1CC(F)F (stereo partly drawn) [E 57, 6-(1-((1-(4-((1R,3R)-2-(2,2-difluoroethyl)-3-methyl-2,3,4,9-tetrahydro-1H-pyrido[3,4-b]indol-1-yl)-3,5-difluorophenyl)pyrrolidin-3-yl)methyl)piperidine-4-carbonyl)-2-(2,6-dioxopiperidin-3-yl)-6,7-dihydropyrrolo[3,4-f]isoindole-1,3(2H,5H)-dione] | < 10
7 | C[C@@H]1Cc2c([nH]c3ccccc23)[C@@H](c2c(F)cc(N3CCCC(CN4CCC(C(=O)N5Cc6cc7c(cc6C5)C(=O)N(C5CCC(=O)NC5=O)C7=O)CC4)C3)cc2F)N1CC(F)F (stereo partly drawn) [E 58, 6-(1-((1-(4-((1R,3R)-2-(2,2-difluoroethyl)-3-methyl-2,3,4,9-tetrahydro-1H-pyrido[3,4-b]indol-1-yl)-3,5-difluorophenyl)piperidin-3-yl)methyl)piperidine-4-carbonyl)-2-(2,6-dioxopiperidin-3-yl)-6,7-dihydropyrrolo[3,4-f]isoindole-1,3(2H,5H)-dione] | 10 to 100
8 | C[C@@H]1Cc2c([nH]c3ccccc23)[C@@H](c2c(F)cc(N3CCCC(CN4CCC(N5Cc6cc7c(cc6C5)C(=O)N(C5CCC(=O)NC5=O)C7=O)CC4)C3)cc2F)N1CC(F)F (stereo partly drawn) [E 59, 6-(1-((1-(4-((1R,3R)-2-(2,2-difluoroethyl)-3-methyl-2,3,4,9-tetrahydro-1H-pyrido[3,4-b]indol-1-yl)-3,5-difluorophenyl)piperidin-3-yl)methyl)piperidin-4-yl)-2-(2,6-dioxopiperidin-3-yl)-6,7-dihydropyrrolo[3,4-f]isoindole-1,3(2H,5H)-dione] | 10 to 100
9 | C[C@@H]1Cc2c([nH]c3ccccc23)[C@@H](c2c(F)cc(N3CC4(CCN4CC(=O)N4Cc5cc6c(cc5C4)C(=O)N(C4CCC(=O)NC4=O)C6=O)C3)cc2F)N1CC(F)F (stereo partly drawn) [E 60, 6-(2-(6-(4-((1R,3R)-2-(2,2-difluoroethyl)-3-methyl-2,3,4,9-tetrahydro-1H-pyrido[3,4-b]indol-1-yl)-3,5-difluorophenyl)-1,6-diazaspiro[3.3]heptan-1-yl)acetyl)-2-(2,6-dioxopiperidin-3-yl)-6,7-dihydropyrrolo[3,4-f]isoindole-1,3(2H,5H)-dione] | > 100

Further lines, results first:

Row | DC50 [nM] | SMILES
10 | > 100 | C[C@@H]1Cc2c([nH]c3ccccc23)[C@@H](c2c(F)cc(N3CC4(CCN4CC(=O)N4Cc5cc6c(cc5C4)C(=O)N(C4CCC(=O)NC4=O)C6)C3)cc2F)N1CC(F)F (stereo partly drawn) [E 61, 3-(6-(2-(6-(4-((1R,3R)-2-(2,2-difluoroethyl)-3-methyl-2,3,4,9-tetrahydro-1H-pyrido[3,4-b]indol-1-yl)-3,5-difluorophenyl)-1,6-diazaspiro[3.3]heptan-1-yl)acetyl)-1-oxo-3,5,6,7-tetrahydropyrrolo[3,4-f]isoindol-2(1H)-yl)piperidine-2,6-dione]
11 | < 10 | C[C@@H]1Cc2c([nH]c3ccccc23)[C@@H](c2c(F)cc(N3CCC4(CCN(CC(=O)N5Cc6cc7c(cc6C5)C(=O)N(C5CCC(=O)NC5=O)C7=O)C4)CC3)cc2F)N1CC(F)F (stereo partly drawn) [E 62, 6-(2-(8-(4-((1R,3R)-2-(2,2-difluoroethyl)-3-methyl-2,3,4,9-tetrahydro-1H-pyrido[3,4-b]indol-1-yl)-3,5-difluorophenyl)-2,8-diazaspiro[4.5]decan-2-yl)acetyl)-2-(2,6-dioxopiperidin-3-yl)-6,7-dihydropyrrolo[3,4-f]isoindole-1,3(2H,5H)-dione]
12 | < 10 | C[C@@H]1Cc2c([nH]c3ccccc23)[C@@H](c2c(F)cc(N3CCC4(CCN(CC(=O)N5Cc6cc7c(cc6C5)C(=O)N(C5CCC(=O)NC5=O)C7)C4)CC3)cc2F)N1CC(F)F (stereo partly drawn) [E 63, 3-(6-(2-(8-(4-((1R,3R)-2-(2,2-difluoroethyl)-3-methyl-2,3,4,9-tetrahydro-1H-pyrido[3,4-b]indol-1-yl)-3,5-difluorophenyl)-2,8-diazaspiro[4.5]decan-2-yl)acetyl)-1-oxo-3,5,6,7-tetrahydropyrrolo[3,4-f]isoindol-2(1H)-yl)piperidine-2,6-dione]
13 | < 10 | C[C@@H]1Cc2c([nH]c3ccccc23)[C@@H](c2c(F)cc(N3CCC4(CCN(C(=O)CN5Cc6cc7c(cc6C5)C(=O)N(C5CCC(=O)NC5=O)C7)C4)CC3)cc2F)N1CC(F)F (stereo partly drawn) [E 64, 3-(6-(2-(8-(4-((1R,3R)-2-(2,2-difluoroethyl)-3-methyl-2,3,4,9-tetrahydro-1H-pyrido[3,4-b]indol-1-yl)-3,5-difluorophenyl)-2,8-diazaspiro[4.5]decan-2-yl)-2-oxoethyl)-1-oxo-3,5,6,7-tetrahydropyrrolo[3,4-f]isoindol-2(1H)-yl)piperidine-2,6-dione]
14 | < 10 | C[C@@H]1Cc2c([nH]c3ccccc23)[C@@H](c2c(F)cc(N3CC4(CN(CC(=O)N5Cc6cc7c(cc6C5)C(=O)N(C5CCC(=O)NC5=O)C7)C4)C3)cc2F)N1CC(F)F (stereo partly drawn) [E 65, 3-(6-(2-(6-(4-((1R,3R)-2-(2,2-difluoroethyl)-3-methyl-2,3,4,9-tetrahydro-1H-pyrido[3,4-b]indol-1-yl)-3,5-difluorophenyl)-2,6-diazaspiro[3.3]heptan-2-yl)acetyl)-1-oxo-3,5,6,7-tetrahydropyrrolo[3,4-f]isoindol-2(1H)-yl)piperidine-2,6-dione]
15 | < 10 | C[C@@H]1Cc2c([nH]c3ccccc23)[C@@H](c2c(F)cc(N3CC4(CCN(C(=O)CN5Cc6cc7c(cc6C5)C(=O)N(C5CCC(=O)NC5=O)C7)C4)C3)cc2F)N1CC(F)F (stereo partly drawn) [E 66, 3-(6-(2-(2-(4-((1R,3R)-2-(2,2-difluoroethyl)-3-methyl-2,3,4,9-tetrahydro-1H-pyrido[3,4-b]indol-1-yl)-3,5-difluorophenyl)-2,6-diazaspiro[3.4]octan-6-yl)-2-oxoethyl)-1-oxo-3,5,6,7-tetrahydropyrrolo[3,4-f]isoindol-2(1H)-yl)piperidine-2,6-dione]
